Assays:
B. subtilis RNase P = target: T1, B. subtilis RNase P (Bacillus subtilis, UniProt P25814); test: B. subtilis RNase P activity assay (FP, real-time); assay type: biochemical
T1 construct: made in house
Method: (§1) Figure 4 Gambogic acid and juglone inhibit A. thaliana PRORP1 (green), human MRPP1/2/3 (red), and B. subtilis RNase P (blue). Compounds gambogic acid (A) and juglone (B) were incubated with enzyme at double the reaction concentration for 30 min prior to the addition of an equal volume of substrate to initiate the reaction. PRORP1 reactions (shown in green) were performed with 0.3 nM PRORP1 and 800 nM pre-tRNA containing 40 nM Fl-pre-tRNA at 25 °C in 30 mM MOPS pH 7.8, 5 mM MgCl2, 100 mM NaCl, 1 mM TCEP, 500 nM (12 μg/ml) yeast tRNA, 5 mM spermidine, 6.65 μg/ml BSA, and 0.01% NP-40. MRPP1/2/3 reactions (shown in red) were performed using 50 nM MRPP3, 500 nM MRPP1/2, 500 nM pre-tRNA containing 40 nM Fl-pre-tRNA at 37 °C in 50 mM MOPS (pH 7.8), 1 mM TCEP, 4.5 mM MgCl2, and 100 mM NaCl. B. subtilis RNase P reactions (shown in blue) were performed using 20 nM RNase P and 500 nM pre-tRNA containing 40 nM Fl-pre-tRNA at 37 °C in 50 mM Tris, pH 7.2, 5 mM MgCl2, 100 mM KCl, 500 nM (12 μg/ml) yeast tRNA, 20 mM dithiothreitol (DTT), 10 mM spermidine, and 0.01% NP-40. Equation 1 was fit to each dataset.
The inhibition of B. subtilis RNase P activity by gambogic acid and juglone was measured using a previously developed FP assay in real-time.^25 Reactions were performed under multiple turnover conditions using 20 nM RNase P and 500 nM Fl-pre-tRNA^Asp in 50 mM Tris (pH 7.2), 5 mM MgCl2, 100 mM KCl, 500 nM (12 μg/ml) yeast tRNA^mix, 20 mM dithiothreitol, 10 mM spermidine, and 0.01% NP-40 at 37 °C.

A. thaliana PRORP1 = target: T2, A. thaliana PRORP1 (Arabidopsis thaliana, UniProt Q66GI4); test: FP cleavage assay, PRORP1 dose response; assay type: biochemical; details: for activity at 6.25 µM: 6.25 μM of inhibitor, FP cleavage assay, read-out: PRORP1 Activity (%); for IC50: 30 min preincubation, 0.3 nM PRORP1, 800 nM pre-tRNA, 25 °C, apparent IC50 for juglone
T2 construct: made in house
T2 sequence (Q66GI4 77-572): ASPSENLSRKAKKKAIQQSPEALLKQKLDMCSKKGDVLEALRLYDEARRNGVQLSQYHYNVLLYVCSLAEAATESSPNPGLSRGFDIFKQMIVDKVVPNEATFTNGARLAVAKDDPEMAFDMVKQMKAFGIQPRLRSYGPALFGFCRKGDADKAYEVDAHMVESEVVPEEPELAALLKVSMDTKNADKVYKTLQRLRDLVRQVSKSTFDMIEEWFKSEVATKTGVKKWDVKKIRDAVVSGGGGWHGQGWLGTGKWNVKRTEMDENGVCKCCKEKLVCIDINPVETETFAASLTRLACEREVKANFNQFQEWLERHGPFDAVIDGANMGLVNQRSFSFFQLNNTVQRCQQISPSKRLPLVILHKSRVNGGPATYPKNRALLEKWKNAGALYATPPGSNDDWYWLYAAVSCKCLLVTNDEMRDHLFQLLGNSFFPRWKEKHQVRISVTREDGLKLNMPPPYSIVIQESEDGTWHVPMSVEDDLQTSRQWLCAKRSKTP
Method: as §1, with “Compounds” for “Figure 4 Gambogic acid and juglone inhibit A. thaliana PRORP1 (green), human MRPP1/2/3 (red), and B. subtilis RNase P (blue). Compounds”
The activity of PRORP1 catalyzed pre-tRNA cleavage was measured by monitoring the fluorescence anisotropy (FA) signal (λex = 485 nm and λem = 535 nm) over time at 25 °C in buffer conditions optimized for a high-throughput format, 30 mM MOPS pH 7.8, 5 mM MgCl2, 100 mM NaCl, 1 mM TCEP, 500 nM (12 μg/ml) yeast tRNA, 5 mM spermidine, 6.65 μg/ml BSA, and 0.01% NP-40. Yeast tRNA^mix (Roche) was used to reduce the number of compounds that inhibit PRORP1 activity by targeting tRNA. Prior to each reaction, pre-tRNA was heated for 3 min at 95 °C to unfold the RNA and refolded in the reaction buffer at room temperature (25 °C) for 30 min. Reactions were performed in black, 96-well plates (Corning Incorporation, #3686) using a TECAN plate-reader (Infinite F500, G-factor = 1.05) at 25 °C, and the FA values recorded. Reactions were initiated with the addition of substrate to enzyme. Experiments were done in the presence of excess substrate. The concentration of enzyme was 0.3 to 5 nM, the concentration of labeled substrate (Fl-pre-tRNA) was 40 nM, and the concentration of pre-tRNA was 120 to 4000 nM. The concentration of Fl-pre-tRNA was held constant in all reactions.
The dose response was measured using the FP assay as described above with varying concentrations of compound. Compounds were incubated with PRORP1 at twice the reaction concentration for 30 min prior to the addition of equal volumes of substrate to initiate the reaction. Experiments were done under multiple turnover conditions (same buffer conditions as the FP assay). […] PRORP1 activity was determined as a function of inhibitor concentration, and Equation 1 was fit to the data to determine the IC50 value. The standard error of the mean (SEM) is reported from the fit.(1) Activity(%)=100/1+([I]/IC50)^n

T1 sequence (P25814 whole entry): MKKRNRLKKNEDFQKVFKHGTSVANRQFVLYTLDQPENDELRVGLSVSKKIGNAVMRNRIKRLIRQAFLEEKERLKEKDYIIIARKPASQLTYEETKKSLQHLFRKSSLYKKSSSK

CC(C)=CCC[C@]1(C)C=Cc2c(O)c3c(c(CC=C(C)C)c2O1)O[C@]12C(=C[C@@H]4C[C@H]1C(C)(C)O[C@@]2(C/C=C(/C)C(=O)O)C4=O)C3=O [gambogic acid]
IC50 (B. subtilis RNase P): 50000 ± 2000 nM
activity at 6.25 µM (A. thaliana PRORP1): 29.1%
IC50 (A. thaliana PRORP1): 1010 ± 40 nM

O=C1C=CC(=O)c2c(O)cccc21 [juglone, 5-hydroxy-1,4-naphthalenedione]
IC50 (B. subtilis RNase P): > 500000 nM
activity at 6.25 µM (A. thaliana PRORP1): 20.2%
IC50 (A. thaliana PRORP1): 2100 ± 40 nM

Reference: article PMC9731865, “Gambogic acid and juglone inhibit RNase P through distinct mechanisms” (The Journal of Biological Chemistry, 2022)
